What was measured:
[1] = molecular target: Tubulin (Bos taurus, UniProt Q6B856+Q862L2+Q862F3); assay: Inhibition of bovine tubulin polymerization after 1 hr by fluorescence spectrometry; assay type: protein assay
[2] = tested on: HT-29; assay: Antiproliferative activity against human HT-29 cells at 10 uM after 72 hrs by MTS assay; assay type: functional; conditions: HT-29, 72 h
[3] = Growth inhibition of human HL-60(TB) cells at 10 uM after 48 hrs by sulforhodamine B assay; assay type: functional; conditions: HL-60, 48 h, read-out: GI
[4] = tested on: K562; assay: Growth inhibition of human K562 cells at 10 uM after 48 hrs by sulforhodamine B assay; assay type: functional; conditions: K562, 48 h, read-out: GI
[5] = tested on: SR; assay: Growth inhibition of human SR cells at 10 uM after 48 hrs by sulforhodamine B assay; assay type: functional; conditions: read-out: GI
[6] = tested on: A549; assay: Growth inhibition of human A549/ATCC cells at 10 uM after 48 hrs by sulforhodamine B assay; assay type: functional; conditions: A549, 48 h, read-out: GI
[7] = Growth inhibition of human HOP62 cells at 10 uM after 48 hrs by sulforhodamine B assay; assay type: functional; conditions: HOP-62, 48 h, read-out: GI
[8] = Growth inhibition of human COLO205 cells at 10 uM after 48 hrs by sulforhodamine B assay; assay type: functional; conditions: COLO 205, 48 h, read-out: GI
[9] = Growth inhibition of human HCT116 cells at 10 uM after 48 hrs by sulforhodamine B assay; assay type: functional; conditions: HCT-116, 48 h, read-out: GI
[10] = Growth inhibition of human HCT15 cells at 10 uM after 48 hrs by sulforhodamine B assay; assay type: functional; conditions: HCT-15, 48 h, read-out: GI
[11] = Growth inhibition of human SF295 cells at 10 uM after 48 hrs by sulforhodamine B assay; assay type: functional; conditions: SF-295, 48 h, read-out: GI
[12] = Growth inhibition of human SNB75 cells at 10 uM after 48 hrs by sulforhodamine B assay; assay type: functional; conditions: SNB-75, 48 h, read-out: GI
[13] = tested on: U-251; assay: Growth inhibition of human U251 cells at 10 uM after 48 hrs by sulforhodamine B assay; assay type: functional; conditions: U-251, 48 h, read-out: GI
[14] = tested on: MDA-MB-435; assay: Growth inhibition of human MDA-MB-435 cells at 10 uM after 48 hrs by sulforhodamine B assay; assay type: functional; conditions: MDA-MB-435, 48 h, read-out: GI
[15] = tested on: SK-MEL-5; assay: Growth inhibition of human SK-MEL-5 cells at 10 uM after 48 hrs by sulforhodamine B assay; assay type: functional; conditions: SK-MEL-5, 48 h, read-out: GI
[16] = Growth inhibition of human OVCAR3 cells at 10 uM after 48 hrs by sulforhodamine B assay; assay type: functional; conditions: OVCAR-3, 48 h, read-out: GI
[17] = Growth inhibition of human NCI-ADR-RES cells at 10 uM after 48 hrs by sulforhodamine B assay; assay type: functional; conditions: read-out: GI
[18] = tested on: A498; assay: Growth inhibition of human A498 cells at 10 uM after 48 hrs by sulforhodamine B assay; assay type: functional; conditions: A498, 48 h, read-out: GI
[19] = Growth inhibition of human PC3 cells at 10 uM after 48 hrs by sulforhodamine B assay; assay type: functional; conditions: PC-3, 48 h, read-out: GI
[20] = Growth inhibition of human DU145 cells at 10 uM after 48 hrs by sulforhodamine B assay; assay type: functional; conditions: DU-145, 48 h, read-out: GI
[21] = tested on: MCF7; assay: Growth inhibition of human MCF7 cells at 10 uM after 48 hrs by sulforhodamine B assay; assay type: functional; conditions: MCF7, 48 h, read-out: GI
[22] = Growth inhibition of human HL-60(TB) cells after 48 hrs by sulforhodamine B assay; assay type: functional; conditions: HL-60, 48 h
[23] = tested on: SR; assay: Growth inhibition of human SR cells after 48 hrs by sulforhodamine B assay; assay type: functional
[24] = Growth inhibition of human HOP62 cells after 48 hrs by sulforhodamine B assay; assay type: functional; conditions: HOP-62, 48 h
[25] = tested on: NCI-H522; assay: Growth inhibition of human NCI-H522 cells after 48 hrs by sulforhodamine B assay; assay type: functional; conditions: NCI-H522, 48 h
[26] = Growth inhibition of human COLO205 cells after 48 hrs by sulforhodamine B assay; assay type: functional; conditions: COLO 205, 48 h
[27] = Growth inhibition of human HCT116 cells after 48 hrs by sulforhodamine B assay; assay type: functional; conditions: HCT-116, 48 h
[28] = tested on: HT-29; assay: Growth inhibition of human HT-29 cells after 48 hrs by sulforhodamine B assay; assay type: functional; conditions: HT-29, 48 h
[29] = Growth inhibition of human SNB75 cells after 48 hrs by sulforhodamine B assay; assay type: functional; conditions: SNB-75, 48 h
[30] = tested on: U-251; assay: Growth inhibition of human U251 cells after 48 hrs by sulforhodamine B assay; assay type: functional; conditions: U-251, 48 h
[31] = tested on: MDA-MB-435; assay: Growth inhibition of human MDA-MB-435 cells after 48 hrs by sulforhodamine B assay; assay type: functional; conditions: MDA-MB-435, 48 h
[32] = tested on: SK-MEL-5; assay: Growth inhibition of human SK-MEL-5 cells after 48 hrs by sulforhodamine B assay; assay type: functional; conditions: SK-MEL-5, 48 h
[33] = Growth inhibition of human OVCAR3 cells after 48 hrs by sulforhodamine B assay; assay type: functional; conditions: OVCAR-3, 48 h
[34] = Growth inhibition of human NCI-ADR-RES cells after 48 hrs by sulforhodamine B assay; assay type: functional
[35] = tested on: A498; assay: Growth inhibition of human A498 cells after 48 hrs by sulforhodamine B assay; assay type: functional; conditions: A498, 48 h
[36] = Growth inhibition of human Caki1 cells after 48 hrs by sulforhodamine B assay; assay type: functional; conditions: CAKI-1, 48 h
[37] = Growth inhibition of human PC3 cells after 48 hrs by sulforhodamine B assay; assay type: functional; conditions: PC-3, 48 h
[38] = Growth inhibition of human DU145 cells after 48 hrs by sulforhodamine B assay; assay type: functional; conditions: DU-145, 48 h
[39] = tested on: MDA-MB-468; assay: Growth inhibition of human MDA-MB-468 cells after 48 hrs by sulforhodamine B assay; assay type: functional; conditions: MDA-MB-468, 48 h
[40] = Cytotoxicity against human HL-60(TB) cells assessed as cell growth at 10 uM after 48 hrs by sulforhodamine B assay; assay type: functional; conditions: HL-60, 48 h, read-out: Activity
[41] = tested on: NCI-H522; assay: Cytotoxicity against human NCI-H522 cells assessed as cell growth at 10 uM after 48 hrs by sulforhodamine B assay; assay type: functional; conditions: NCI-H522, 48 h, read-out: Activity
[42] = tested on: HUVEC; assay: Inhibition of cell invasion of HUVEC after 24 hrs by crystal violet staining based Boyden chamber assay; assay type: functional; conditions: Homo sapiens
[43] = tested on: HUVEC; assay: Inhibition of cell invasion of HUVEC at 0.01 uM after 24 hrs by crystal violet staining based Boyden chamber assay; assay type: functional; conditions: Homo sapiens
[44] = tested on: HUVEC; assay: Inhibition of cell invasion of HUVEC at 0.1 uM after 24 hrs by crystal violet staining based Boyden chamber assay; assay type: functional; conditions: Homo sapiens
[45] = tested on: HUVEC; assay: Inhibition of cell invasion of HUVEC at 1 uM after 24 hrs by crystal violet staining based Boyden chamber assay; assay type: functional; conditions: Homo sapiens
[46] = tested on: HUVEC; assay: Antiangiogenic activity in HUVEC assessed as disruption of capillaries after 6 hrs by inverted microscopic analysis; assay type: functional, cell-based; conditions: Homo sapiens
[47] = tested on: HUVEC; assay: Cytotoxicity against HUVEC at 1 uM after 72 hrs by MTS assay; assay type: cell-based; conditions: human

COc1ccc(-c2nnc3n(C)c(=O)c4ccccc4n23)cc1O
IC50 [1]: 150 nM | inhibition at 10 µM [2]: 71% | inhibition of growth at 10 µM [3]: 100% | inhibition of growth at 10 µM [4]: 92% | inhibition of growth at 10 µM [5]: 95% | inhibition of growth at 10 µM [6]: 82% | inhibition of growth at 10 µM [7]: 90% | inhibition of growth at 10 µM [8]: 83% | inhibition of growth at 10 µM [9]: 86% | inhibition of growth at 10 µM [10]: 81% | inhibition of growth at 10 µM [11]: 93% | inhibition of growth at 10 µM [12]: 88% | inhibition of growth at 10 µM [13]: 82% | inhibition of growth at 10 µM [14]: 100% | inhibition of growth at 10 µM [15]: 75% | inhibition of growth at 10 µM [16]: 100% | inhibition of growth at 10 µM [17]: 85% | inhibition of growth at 10 µM [18]: 66% | inhibition of growth at 10 µM [19]: 73% | inhibition of growth at 10 µM [20]: 81% | inhibition of growth at 10 µM [21]: 85% | GI50 [22]: 64 nM | GI50 [23]: 31 nM | GI50 [24]: 48 nM | GI50 [25]: 31 nM | GI50 [26]: 3820 nM | GI50 [27]: 57 nM | GI50 [28]: 4310 nM | GI50 [29]: 41 nM | GI50 [30]: 125 nM | GI50 [31]: 23 nM | GI50 [32]: 59 nM | GI50 [33]: 45 nM | GI50 [34]: 62 nM | GI50 [35]: 6420 nM | GI50 [36]: 1220 nM | GI50 [37]: 1430 nM | GI50 [38]: 2360 nM | GI50 [39]: 4330 nM | growth at 10 µM [40]: 19% | growth at 10 µM [41]: 5% | inhibition [42]: Dose-dependent effect | inhibition at 0.01 µM [43]: 12% | inhibition at 0.1 µM [44]: 36% | inhibition at 1 µM [45]: 89% | Activity [46]: Dose-dependent effect | Activity [47]: Non-toxic

Reference: ChEMBL document CHEMBL3792284, “Synthesis of triazoloquinazolinone based compounds as tubulin polymerization inhibitors and vascular disrupting agents” (Eur J Med Chem, 2016)
